Test results from article PMC12616683, “In Vivo Atlas of Neuroprotective Cyclic Dipeptides Derived from Food Gelatin Using Peptidomics and Feature-Based Molecular Networking” (Journal of Agricultural and Food Chemistry, 2025).
Peptide text beside a SMILES is read from it.

Test: FBMN analysis of short peptides in small intestine contents and serum after oral DHG
Conditions: for Peptide signal (feature intensity) in the small intestine, 30 min / Peptide signal (feature intensity) in the small intestine, 60 min / Peptide signal (feature intensity) in the small intestine, 120 min / Peptide signal (feature intensity) in the small intestine, 240 min: small intestine contents, C57 mice, FBMN feature intensity, peptides smaller than 690 Da; for Peptide signal (feature intensity) in the small intestine, 30 min: 30 min after oral DHG; for Peptide signal (feature intensity) in the small intestine, 60 min: 60 min after oral DHG; for Peptide signal (feature intensity) in the small intestine, 120 min: 120 min after oral DHG; for Peptide signal (feature intensity) in the small intestine, 240 min: 240 min after oral DHG

| Compound | Peptide signal (feature intensity) in the small intestine, 30 min | Peptide signal (feature intensity) in the small intestine, 60 min | Peptide signal (feature intensity) in the small intestine, 120 min | Peptide signal (feature intensity) in the small intestine, 240 min | time detected in serum (FBMN) (serum, time points 0.5-4 h after oral DHG) [h] |
| --- | --- | --- | --- | --- | --- |
| CC[C@H](C)[C@H](N)C(=O)N[C@@H](Cc1ccc(O)cc1)C(=O)O [Ile-Tyr] (H-Ile-Tyr-OH) | 4.20E+05 | 8.21E+05 | 0.00E+00 | 0.00E+00 |  |
| CCCC[C@H](NC(=O)[C@H](C)N)C(=O)O [L-Alanyl-L-norleucine] (HELM PEPTIDE1{A.[Nle]}$$$$V2.0) | 1.73E+05 | 0.00E+00 | 2.05E+05 | 1.49E+05 |  |
| CC(C)C[C@H](N)C(=O)N[C@@H](CCC(=O)O)C(=O)N[C@@H](CCCCN)C(=O)O [Leu-Glu-Lys] (H-Leu-Glu-Lys-OH) | 0.00E+00 | 4.20E+05 | 0.00E+00 | 9.49E+05 |  |
| CC(C)C[C@H](N)C(=O)N[C@@H](CCC(=O)O)C(=O)O [Leu-Glu] (H-Leu-Glu-OH) | 7.88E+06 | 7.70E+06 | 0.00E+00 | 0.00E+00 |  |
| CC(C)C[C@H](NC(=O)CNC(=O)[C@@H](N)CC(C)C)C(=O)O [Leu-Gly-Leu] (H-Leu-Gly-Leu-OH) | 2.40E+06 | 6.61E+05 | 0.00E+00 | 4.40E+06 |  |
| CC(C)CC(N)C(=O)NC(Cc1ccccc1)C(=O)O (stereo not drawn) [Leu-Phe] (H-Leu-Phe-OH; configuration not given here) | 6.52E+05 | 9.44E+05 | 8.51E+05 | 0.00E+00 |  |
| CC(C)C[C@H](N)C(=O)N[C@H](C(=O)N[C@@H](CCCCN)C(=O)O)C(C)C [Leu-Val-Lys] (H-Leu-Val-Lys-OH) | 0.00E+00 | 3.40E+05 | 8.97E+05 | 2.22E+06 |  |
| CC(C)CC(N)C(=O)NC(C(=O)O)C(C)C (stereo not drawn) [Leu-Val] (H-Leu-Val-OH; configuration not given here) | 4.22E+06 | 7.59E+06 | 0.00E+00 | 0.00E+00 |  |
| CC(C)C[C@H](N)C(=O)N[C@@H](C)C(=O)O [Leu-ala] (H-Leu-Ala-OH) | 1.85E+06 | 1.64E+06 | 0.00E+00 | 0.00E+00 |  |
| CSCCC(N)C(=O)NC(CC(C)C)C(=O)O (stereo not drawn) [Met-Leu] (H-Met-Leu-OH; configuration not given here) | 0.00E+00 | 0.00E+00 | 4.03E+05 | 3.59E+05 |  |
| CSCC[C@H](N)C(=O)N[C@@H](Cc1ccccc1)C(=O)O [Met-Phe] (H-Met-Phe-OH) | 0.00E+00 | 0.00E+00 | 5.87E+05 | 2.12E+06 |  |
| CSCCC(N)C(=O)NC(C(=O)O)C(C)C (stereo not drawn) [Met-Val] (H-Met-Val-OH; configuration not given here) | 0.00E+00 | 0.00E+00 | 5.98E+05 | 1.03E+06 |  |
| CSCC[C@H](N)C(=O)O [Methionine] | 0.00E+00 | 0.00E+00 | 1.12E+05 | 2.58E+05 |  |
| NC(=O)CC[C@H](NC(=O)[C@@H](N)Cc1ccccc1)C(=O)O [Phe-Gln] | 0.00E+00 | 1.71E+05 | 3.17E+05 | 2.35E+05 |  |
| N[C@@H](Cc1ccccc1)C(=O)N[C@@H](CCC(=O)O)C(=O)O [Phe-Glu] (H-Phe-Glu-OH) | 1.31E+07 | 3.77E+06 | 0.00E+00 | 0.00E+00 |  |
| CC[C@H](C)[C@H](NC(=O)[C@@H](N)Cc1ccccc1)C(=O)N[C@@H](CCCCN)C(=O)O [Phe-Ile-Lys] (H-Phe-Ile-Lys-OH) | 0.00E+00 | 1.05E+05 | 8.61E+05 | 7.83E+05 |  |
| CC(C)C[C@H](NC(=O)[C@@H](N)Cc1ccccc1)C(=O)N[C@@H](CCCCN)C(=O)O [Phe-Leu-Lys] (H-Phe-Leu-Lys-OH) | 0.00E+00 | 4.25E+05 | 0.00E+00 | 8.08E+05 |  |
| CC(C)CC(NC(=O)C(N)Cc1ccccc1)C(=O)O (stereo not drawn) [Phe-Leu] (H-Phe-Leu-OH; configuration not given here) | 2.64E+06 | 2.44E+06 | 0.00E+00 | 0.00E+00 | ≥ 4 |
